Experimental data: PubChem BioAssay (NCI)
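Exposure lasted 48 hours, with cells grown in 96-well plates and compounds tested at five concentrations. Here, GI50 denotes the concentration required for 50% inhibition of growth. The concentration for full growth arrest is given as TGI.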

What was measured:
Experiment in all cases: DTP human tumour cell line panel, 48 h
SK-MEL-2 melanoma = test system: SK-MEL-2 melanoma
RXF 393 renal = test system: RXF 393 renal
NCI-H226 lung = test system: NCI-H226 lung
UACC-62 melanoma = test system: UACC-62 melanoma
SN12C renal = test system: SN12C renal
OVCAR-5 ovarian = test system: OVCAR-5 ovarian
COLO 205 colon = test system: COLO 205 colon
LOX IMVI melanoma = test system: LOX IMVI melanoma
HCC-2998 colon = test system: HCC-2998 colon
OVCAR-8 ovarian = test system: OVCAR-8 ovarian

| SMILES | TGI (SK-MEL-2 melanoma) [µM] | TGI (RXF 393 renal) [µM] | TGI (NCI-H226 lung) [µM] | TGI (UACC-62 melanoma) [µM] | TGI (SN12C renal) [µM] | TGI (OVCAR-5 ovarian) [µM] | TGI (COLO 205 colon) [µM] | TGI (LOX IMVI melanoma) [µM] | TGI (HCC-2998 colon) [µM] | TGI (OVCAR-8 ovarian) [µM] | GI50 (SK-MEL-2 melanoma) [nM] | GI50 (RXF 393 renal) [nM] | GI50 (NCI-H226 lung) [µM] | GI50 (UACC-62 melanoma) [nM] | GI50 (SN12C renal) [µM] | GI50 (OVCAR-5 ovarian) [µM] | GI50 (COLO 205 colon) [nM] | GI50 (LOX IMVI melanoma) [nM] | GI50 (HCC-2998 colon) [nM] | GI50 (OVCAR-8 ovarian) [nM] |
| --- | --- | --- | --- | --- | --- | --- | --- | --- | --- | --- | --- | --- | --- | --- | --- | --- | --- | --- | --- | --- |
| O/N=C1/C(=C/c2ccc(Oc3ccccc3)cc2)CCCC1C(NO)c1ccc(Oc2ccccc2)cc1 (stereo unspecified) | > 100 | 52.2 | > 100 | > 100 | 96.7 | > 100 | 35.8 | 29.1 | > 100 | > 100 |  |  |  |  |  |  |  |  |  |  |
| Fc1ccc(-c2ncn(C3CCNCC3)c2-c2ccnc(Oc3ccc(F)c(F)c3)n2)cc1 | 14.5 | 6.48 | > 25 | 10.3 | > 14.6 | > 25 | 8.47 | 9.14 | 7.77 | 10.9 | 6840 | 3150 | 9.34 | 4990 | 6.24 | 7.78 | 4550 | 4290 | 3840 | 4960 |
| CCOC(=O)C(=O)Nc1ccc(Cl)cc1C | > 100 | > 100 | > 100 | > 100 | > 100 | > 100 | > 100 | > 100 | > 100 | > 100 |  |  |  |  |  |  |  |  |  |  |
| CC(=O)N1c2ccccc2NC2=C(C(=O)N(Cc3ccccc3)C2(C)C)C1c1ccco1 (stereo unspecified) | > 25 | 1.87 | > 25 | > 25 | > 25 | > 25 | > 25 | > 25 | > 7.95 | > 25 | 1030 | 599 | > 25 | 373 | 0.589 | 0.44 | 742 | 1010 | 608 | 1240 |
| Cc1nc(CN2CCCCC2)c(O)c(=O)[nH]1 | > 100 | > 100 | > 100 | > 100 | > 100 | > 100 | > 100 | > 100 |  | > 100 |  |  |  |  |  |  |  |  |  |  |
| CCN(CC)CCCC(C)Nc1nc(C)cc(Nc2ccc3nc(C)cc(N)c3c2)n1 (stereo unspecified) | > 100 | > 100 | > 100 | > 100 | > 100 | > 100 | > 100 | 39.8 | 82.9 | > 100 | 56600 | 55100 | > 100 | 39200 | 37 | 45.8 | 39500 | 18400 | 26900 | 84500 |
| O=[N+]([O-])/C=C/c1cc2ccccc2[nH]1 | 34.6 | 26.6 | 37.7 | 33.7 | 37.2 | 37.1 | 32.7 | 29.5 |  | 48.8 |  |  |  |  |  |  |  |  |  |  |
| CS(=O)(=O)Nc1cccc(-c2cc(-c3ccccc3Cl)c(C#N)c(N)n2)c1 | 15.8 | 2.27 | 32.3 | 15.5 | 24.4 | 19.9 | 4.88 | 17.4 | 8.52 | 19.9 | 602 | 328 | 10.2 | 510 | 0.722 | 3.22 | 472 | 531 | 1360 | 1050 |
| O=S(=O)(SCc1ccccc1)C(c1ccccc1)c1ccccc1 | > 100 | 68 | 54.5 | 85.7 | 68.2 | > 100 | 36.8 | > 100 | > 100 | 43.1 |  |  |  |  |  |  |  |  |  |  |
| COc1ccc(C[C@@H]2NC[C@@H](O)[C@@H]2OC(C)=O)cc1 | 0.3 | 0.0674 |  |  |  | > 100 |  |  |  | 0.112 |  |  | 5.27 | 3190 | 3.19 | 14.1 | 2040 | 3460 | 2190 | 3480 |
| Cc1ccc(NC(=O)C(=O)CC(=O)C2CCOC2=O)c(C)c1 (stereo unspecified) | > 100 | > 100 | > 100 | > 100 | > 100 | > 100 | > 100 | > 100 | > 100 | > 100 |  |  |  |  |  |  |  |  |  |  |
| COc1ccc(C(=O)C(c2ccc(OC)cc2)C2OC(=O)C(Cl)=C2Cl)cc1 (stereo unspecified) | > 100 | > 100 | > 100 | > 100 | > 100 | > 100 |  | > 100 | > 100 | > 100 |  |  |  |  |  |  |  |  |  |  |
| CCN(CC)c1ccc2c(c1)Oc1nc(N)c(C#N)c(N)c1C2Sc1ccc(OC)cc1 (stereo unspecified) | 3.14 | 3.35 | 3.55 | 3.34 |  | 4.6 | 3.65 | 3.07 | 3.43 | 3.76 | 1560 | 1880 | 1.82 | 1720 |  | 2.04 | 1880 | 1560 | 1810 | 1870 |
| COc1cc(O)c2c(c1)C(=O)C=C(Cl)C2=O | > 100 | > 100 | > 100 | > 100 |  | > 100 | > 100 | > 100 | > 100 | > 100 |  |  |  |  |  |  |  |  |  |  |
| Cc1cc(Nc2c3ccccc3nc3ccccc23)ccc1NS(C)(=O)=O | 10.6 | 16 | 22 |  | 20.8 | 22.2 | 6.35 | 13.5 | 20.7 | 21.7 | 3420 | 3460 | 4.41 |  | 3.78 | 6.14 | 2440 | 3130 | 5940 | 3410 |
| CC(C)CC(=O)Nc1n[nH]c2c1CN(C(=O)C1CCN(C)CC1)C2(C)C | 2.8 | 4.04 | > 10 |  | > 10 | > 10 | 2.19 | 8.63 | > 10 | > 10 | 524 | 1220 | 1.48 |  | 1.27 | 1.9 | 331 | 209 | 1170 | 1300 |
| O=C(CC1(O)C(=O)Nc2ccccc21)c1ccco1 (stereo unspecified) | > 100 | > 100 | > 100 | > 100 | > 100 | > 100 | > 100 | > 100 |  | > 100 |  |  |  |  |  |  |  |  |  |  |
